Laboratory results published in patent US12252490B2, “Inhibiting deubiquitinase USP25 and USP28” (Valo Health, Inc., priority 2018, dated 2025).
pIC50: −log10 of the molar value.

Each molecule was assayed against T1, USP25 (USP25-His6) (Homo sapiens, UniProt Q9UHP3) (assay: Ubiquitin-Rhodamine 110 Assay for USP25 Activity, Example A-2). Conditions: USP25, 75 pM enzyme, 25 nM Ub-Rh110, 30 min preincubation; read-out: Assay A-2 (IC50 range).
T1 construct: His6 (C); purchased Boston Biochem E-546
T1 sequence (Q9UHP3 1-1055): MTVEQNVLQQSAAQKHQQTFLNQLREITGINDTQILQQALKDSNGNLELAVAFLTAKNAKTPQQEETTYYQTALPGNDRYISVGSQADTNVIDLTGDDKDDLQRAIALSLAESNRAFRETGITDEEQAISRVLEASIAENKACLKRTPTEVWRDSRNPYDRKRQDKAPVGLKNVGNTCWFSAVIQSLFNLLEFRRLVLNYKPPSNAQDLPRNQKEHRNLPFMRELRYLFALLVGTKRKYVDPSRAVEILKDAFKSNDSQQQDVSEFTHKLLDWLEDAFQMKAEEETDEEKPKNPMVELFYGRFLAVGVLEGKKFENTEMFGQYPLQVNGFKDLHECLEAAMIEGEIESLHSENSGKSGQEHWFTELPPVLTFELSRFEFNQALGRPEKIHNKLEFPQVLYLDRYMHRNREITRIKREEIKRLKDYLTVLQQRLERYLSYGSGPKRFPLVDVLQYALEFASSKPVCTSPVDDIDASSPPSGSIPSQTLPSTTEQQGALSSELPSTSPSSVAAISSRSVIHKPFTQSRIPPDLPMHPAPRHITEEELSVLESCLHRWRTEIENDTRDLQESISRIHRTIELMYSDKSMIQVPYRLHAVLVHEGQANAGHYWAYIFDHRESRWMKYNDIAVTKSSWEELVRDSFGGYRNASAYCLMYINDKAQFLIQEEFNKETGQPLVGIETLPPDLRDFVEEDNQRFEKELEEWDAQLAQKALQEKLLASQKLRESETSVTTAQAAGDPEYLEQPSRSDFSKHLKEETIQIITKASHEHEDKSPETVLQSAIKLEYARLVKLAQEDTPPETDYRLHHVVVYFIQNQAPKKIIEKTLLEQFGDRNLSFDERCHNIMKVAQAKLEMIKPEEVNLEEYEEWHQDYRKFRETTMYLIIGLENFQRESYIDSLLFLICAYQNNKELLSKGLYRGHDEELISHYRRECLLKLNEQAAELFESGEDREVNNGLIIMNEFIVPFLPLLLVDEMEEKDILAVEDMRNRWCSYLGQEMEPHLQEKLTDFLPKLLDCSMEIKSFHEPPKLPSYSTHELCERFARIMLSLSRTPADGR
Type: biochemical
Experimental: The assay was performed in a final volume of 9 μL in assay buffer containing 20 mM Tris-HCl (pH 8.0, (1M Tris-HCl, pH 8.0 solution; Corning 46-031-CM)), 3 mM BME (2-Mercaptoethanol; Sigma 63689-25ML-F), 0.03% BGG (0.22 μM filtered, Sigma, G7516-25G), and 0.01% Triton X-100 (Sigma, T9284-10L). Nanoliter quantities of 10-point, 3-fold serial dilution in DMSO was pre-dispensed into 1536 assay plates (Corning, #3724BC) for a final test concentration of 25 μM to 1.3 nM, top to lowest dose, respectively. Enzyme USP25, construct USP25-His6, (Boston Biochem E-546). Concentration and incubation times were optimized for the maximal signal-to-background while maintaining initial velocity conditions at a fixed substrate concentration. The final concentration of the enzyme in the assay was 75 pM. Final substrate (Ub-Rh110; Ubiquitin-Rhodamine 110, R&D Systems #U-555) concentration was 25 nM with [Ub-Rh110]<<Km. 3 μL of 2× enzyme was added to assay plates (pre-stamped with compound) preincubated with […] for 30 minutes and then 3 μL of 2×Ub-Rh110 was added to assay plates. Plates were incubated for 45 minutes at room temperature before addition of 3 μL of stop solution (final concentration of 10 mM citric acid (Sigma, 251275-500G)). Fluorescence was read on the Envision (Excitation at 485 nm and Emission at 535 nm; Perkin Elmer) or on the PheraSTAR (Excitation at 485 nm and Emission at 535 nm; BMG Labtech).
For assay formats Examples A-1a, A-1b, and A-2, data were reported as percent inhibition compared with control wells based on the following equation: % inh=1−((FLU−AveLow)/(AveHigh−AveLow)) where FLU=measured Fluorescence, AveLow=average Fluorescence of no enzyme control (n=16), and AveHigh=average Fluorescence of DMSO control (n=16). IC50 values were determined by curve fitting of the standard 4 parameter logistic fitting algorithm included in the Activity Base software package: IDBS XE Designer Model205. Data is fitted using the Levenburg Marquardt algorithm.
With CCn1cc(Cl)c2cc(C(=O)NCCc3ccc(N4CCNCC4)cc3)cnc21 [Example 3-1, 3-Chloro-1-ethyl-N-[2-[4-(piperazin-1-yl)phenyl]ethyl]-1H-pyrrolo[2,3-b]pyridine-5-carboxamide] the pIC50 was 6.70 to 7.30.
For CCn1ccc2cc(C(=O)NC[C@@H](C)c3cc(F)c(N4CCNCC4)cc3F)cnc21 (single isomer, unassigned) [Example 2-1], the pIC50 was 5.70 to 6.70.
Nc1c(C(=O)NCCc2ccc(N3CCNCC3)cc2)cnc2[nH]ccc12 [Example 1-5, 4-amino-N-(4-(piperazin-1-yl)phenethyl)-1H-pyrrolo[2,3-b]pyridine-5-carboxamide] gave a pIC50 of 5.00 to 5.70.
Cn1ccc2cc(C(=O)NCCc3ccc(N4CCNCC4)cc3)cnc21 [Example 1-3, 1-methyl-N-(4-(piperazin-1-yl)phenethyl)-1H-pyrrolo[2,3-b]pyridine-5-carboxamide] was tested, and the pIC50 was 5.70 to 6.70.
Molecule O=C(NCCc1ccc(N2CCNCC2)cc1)c1cnc2c(ccn2CC(F)(F)F)c1 [Example 1-8] has a pIC50 of 6.70 to 7.30.
For CCn1ccc2cc(C(=O)NCCc3cc(F)c(N4CC5CCC(C4)N5)cc3F)nnc21 [Example 4-1, N-[2-(4-[3,8-diazabicyclo[3.2.1]octan-3-yl]-2,5-difluorophenyl)ethyl]-7-ethyl-7H-pyrrolo[2,3-c]pyridazine-3-carboxamide], the pIC50 was 5.70 to 6.70.
For CC(C)(O)Cn1ccc2cc(C(=O)NCCc3cc(F)c(N4CC5CCC(C4)N5)cc3F)cnc21 [Example 1-9, N-(4-(3,8-diazabicyclo[3.2.1]octan-3-yl)-2,5-difluorophenethyl)-1-(2-hydroxy-2-methylpropyl)-1H-pyrrolo[2,3-b]pyridine-5-carboxamide], the pIC50 was < 5.00.
CCn1cc(Cl)c2cc(C(=O)NCCc3cc(F)c(N4CC5CCC(C4)N5)cc3F)nnc21 [Example 4-4, N-(4-(3,8-diazabicyclo[3.2.1]octan-3-yl)-2,5-difluorophenethyl)-5-chloro-7-ethyl-7H-pyrrolo[2,3-c]pyridazine-3-carboxamide] gave a pIC50 of 6.70 to 7.30.
CCn1ccc2cc(C(=O)NC[C@H](C)c3cc(F)c(N4CC5CCC(C4)N5)cc3F)cnc21 (single isomer, unassigned) [Example 2-3] gave a pIC50 of 5.70 to 6.70.
Work on CCn1ccc2cc(C(=O)NCCc3ccc(N4CCNCC4)cc3)cnc21 [Example 1-4, 1-ethyl-N-(4-(piperazin-1-yl)phenethyl)-1H-pyrrolo[2,3-b]pyridine-5-carboxamide] yielded a pIC50 of 5.70 to 6.70.
With CCn1ccc2cc(C(=O)NC[C@H](C)c3cc(F)c(N4CCNCC4)cc3F)cnc21 (single isomer, unassigned) [Example 2-2] the pIC50 was 5.00 to 5.70.
With CCn1ccc2cc(C(=O)NC[C@@H](C)c3cc(F)c(N4CC5CCC(C4)N5)cc3F)cnc21 (single isomer, unassigned) [Example 2-4] the pIC50 was 5.70 to 6.70.
With CCn1ccc2cc(C(=O)NC[C@@H](C)c3cc(F)c(N4CC5CCC(C4)N5)cc3F)nnc21 (single isomer, unassigned) [Example 4-3] the pIC50 was 5.70 to 6.70.
CCn1ccc2cc(C(=O)NCCc3cc(F)c(N4CC5CCC(C4)N5)cc3F)cnc21 [Example 1-1, N-[2-(4-[3,8-diazabicyclo[3.2.1]octan-3-yl]-2,5-difluorophenyl)ethyl]-1-ethyl-1H-pyrrolo[2,3-b]pyridine-5-carboxamide] was tested, and the pIC50 was 6.70 to 7.30.
O=C(NCCc1ccc(N2CCNCC2)cc1)c1cnc2[nH]ccc2c1 [Example 1-2, N-(4-(piperazin-1-yl)phenethyl)-1H-pyrrolo[2,3-b]pyridine-5-carboxamide] was tested, and the pIC50 was 5.70 to 6.70.
O=C(NCCc1ccc(N2CCNCC2)cc1)c1cnc2[nH]cc(Cl)c2c1 [Example 3-2, 3-chloro-N-(4-(piperazin-1-yl)phenethyl)-1H-pyrrolo[2,3-b]pyridine-5-carboxamide] was tested, and the pIC50 was 5.00 to 5.70.
In the case of CCn1ccc2cc(C(=O)NCCc3ccc(N4CC5CCC(C4)N5)c(F)c3)cnc21 [Example 1-10, N-(4-(3,8-diazabicyclo[3.2.1]octan-3-yl)-3-fluorophenethyl)-1-ethyl-1H-pyrrolo[2,3-b]pyridine-5-carboxamide], the pIC50 was 5.70 to 6.70.
CCn1ccc2cc(C(=O)NC[C@H](C)c3cc(F)c(N4CC5CCC(C4)N5)cc3F)nnc21 (single isomer, unassigned) [Example 4-2] gave a pIC50 of 5.70 to 6.70.
CCn1ccc2cc(C(=O)NCCc3ccc(N4CC5CCC(C4)N5)cc3)cnc21 [Example 1-6, N-(4-(3,8-diazabicyclo[3.2.1]octan-3-yl)phenethyl)-1-ethyl-1H-pyrrolo[2,3-b]pyridine-5-carboxamide] was tested, and the pIC50 was 6.70 to 7.30.
CCn1ccc2cc(C(=O)NCCc3cc(F)c(N4CCNCC4)cc3F)cnc21 [Example 1-7, N-(2,5-difluoro-4-(piperazin-1-yl)phenethyl)-1-ethyl-1H-pyrrolo[2,3-b]pyridine-5-carboxamide] gave a pIC50 of 5.70 to 6.70.
